Experimental data: patent US9447447B2, “Method and apparatus for testing cardiotoxicity and evaluating cardiomyocytes” (National University Corporation Tokyo Medical and Dental …, priority 2010, dated 2016)

How the values were obtained:
[1] = tested on: human ES cell-derived myocardial clusters
Source text: They were received in raw and recovered using a glass capillary (Vitrolife), cultured in a medium plus 20% inactivated FBS, 1% non-essential amino acids, 1% penicillin-streptomycin, and 0.2% β-mercaptoethanol in DMEM (all purchased from Invitrogen).
Collected clusters were then placed in a multi-electrode tip (Alfa Med Scientific). The day on which they were placed was set to Day 0. Clusters for which a 1st peak of an extracellular potential (FP) of 200 mV or more was acquired on Day 3 was used for data acquisition. A multi-electrode membrane potential measurement system (Nikkyo Technos Corp.) was used to acquire data.
Pre-agent application data (called ‘Before’) was acquired for 10 minutes before agent application. The agent was dissolved in deionized distilled water (DDW) or DMSO, and diluted in PBS before its application. […] Extracellular potential duration (FPD) and STV (short term variability) of the FPD was calculated from the acquired data.
A steep downward peak of the FP corresponds to the inflow of Na^+. A gradual upward peak corresponds to the outflow of K^+. The FPD was defined as the time between the Na^+ and K^+ peaks. In addition, the STV of the FPD was evaluated as the variation between beats of FPD. STV was calculated by the following equation.
[formula] The increase in the variation between the FPDs can be evaluated as an increase in the value of STV. […]

[2] = both in vivo and in vitro; cited from earlier work

| SMILES | position in two-dimensional plot (X: FPD score, FPD extended by 10% or more; Y: STV score, STV increased by 100% or more) [1] | known effect on APD and STV [2] |
| --- | --- | --- |
| COc1ccc([C@@H]2Sc3ccccc3N(CCN(C)C)C(=O)[C@@H]2OC(C)=O)cc1 [Diltiazem] | upper left corner | – |
| CC(C)NCC(O)c1ccc(NS(C)(=O)=O)cc1 (racemic) [DL-sotalol] | upper right corner | increase the APD and STV |
